{"source": "paper PMC10785662", "about": "(ACS Omega, 2023)", "key": {"[1]": {"tested_on": "KPC tumors", "experiment": "In vivo tumor growth study, KPC tumors in athymic nude mice", "parameters": "species or system mouse", "details": "20 mg/kg IV, mice with KPC tumors"}, "[2]": {"experiment": "Pharmacokinetic assay in mice, plasma LC-MS/MS, two-compartment model", "assay_type": "in vivo, mouse"}}}
{"smiles": "COc1cccc2c1C(=O)c1c(O)c3c(c(O)c1C2=O)C[C@@](O)(C(=O)CO)C[C@@H]3O[C@H]1C[C@H](N)[C@H](O)[C@H](C)O1", "note": "[doxorubicin, Doxorubicin]", "values": [{"measurement": "time to toxicity-related fatality", "setting": "[1]", "result": "≤ 1", "unit": "week"}, {"measurement": "toxicity-related fatality", "setting": "[1]", "result": "toxicity-related fatality in all mice"}, {"measurement": "AUC", "setting": "[2]; male, ICR, mouse, plasma, iv, 6 mg/kg", "result": 260, "unit": "ng·h/mL"}, {"measurement": "T1/2β (terminal half-life)", "setting": "[2]; mouse plasma, single IV dose 6.0 mg/kg doxorubicin-equivalent", "result": 3.2, "unit": "h"}]}
